Experimental findings from patent US12378224B2 (Dong-A Socio Holdings Co., Ltd., priority 2016, dated 2025) are described below.

Structures are written as SMILES. pIC50: −log10 of the molar value.

Sequence of human c-MER catalytic domain (Q12866 587-858): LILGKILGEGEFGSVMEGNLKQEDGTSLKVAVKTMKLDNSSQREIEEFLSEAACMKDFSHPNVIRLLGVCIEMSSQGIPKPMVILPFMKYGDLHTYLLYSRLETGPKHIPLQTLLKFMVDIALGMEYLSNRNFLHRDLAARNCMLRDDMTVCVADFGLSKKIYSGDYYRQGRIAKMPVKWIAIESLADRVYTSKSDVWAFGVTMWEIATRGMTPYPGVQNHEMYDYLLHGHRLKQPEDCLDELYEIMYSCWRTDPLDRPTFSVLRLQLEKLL

This test concerns the target human c-MER catalytic domain (Homo sapiens (Human), UniProt Q12866). In words: TR-FRET Kinase Activity Biochemical Assay (LanthaScreen). Conditions: 10 uM ATP, 1 hour, kinase not given. An excerpt: For the SAR (structure-activity relationship) and compound screening, LanthaScreen™ TR-FRET (Time-Resolved fluorescence energy transfer) assay was employed using the phospho-tyrosine specific Terbium (Tb)-labelded antibody with a fluorescein labeled poly-GT (glutamate-tyrosine) as a substrate. Upon excitation at 340 nm by UV, the energy from Tb donor of the antibody is transferred to the fluorescein of the phosphorylated poly GT substrate, and fluorescein emits light at 520 nm. The ratio between the intensity of […] was used to quantify the level of kinase activity. The recombinant proteins of human c-MER and AXL catalytic domains, Fluorescein-labeled poly-GT substrate, Tb-labeled anti-phosphorylated tyrosine antibodies, the kinase assay buffer, and 0.5M EDTA solution were purchased (Life technologies, USA). The TR-FRET assays were carried out in the white low volume 384-well plate (Corning, USA). […] 10 mM EDTA was added to terminate the enzyme reaction, and the level of phosphorylation of poly-GT substrate was determined following 30 min incubation with 2 nM Tb-labeled antibody. The fluorescence intensity was measured with Envision™ plate reader (PerkinElmer, USA).
Compound `Cn1cc(-c2cnc(N)c(C(=O)N[C@@H]3CCN(C(=O)Nc4cccc(Br)c4)C3)c2)cn1` [Example 24, (R)-2-amino-N-(1-((3-bromophenyl)carbamoyl)pyrrolidin-3-yl)-5-(1-methyl-1H-pyrazol-4-yl)nicotinamide] gave a pIC50 of 6.00 to 7.00.

The compound `Cn1cc(-c2cnc(N)c(C(=O)N[C@@H]3CCN(C(=O)OC4CCCN(c5ccc(C=O)cc5)C4)C3)c2)cn1` (stereo partly drawn) [Example 123, 1-(4-formylphenyl)piperidin-3-yl (3R)-3-(2-amino-5-(1-methyl-1H-pyrazol-4-yl)nicotinamido)pyrrolidine-1-carboxylate] had a pIC50 of under 6.00.

With `Cn1cc(-c2cnc(N)c(C(=O)N[C@@H]3CCN(C(=O)c4ccc(-c5ccc(S(=O)(=O)N6CCC6)cc5)cc4)C3)c2)cn1` [Example 660, (R)-2-amino-N-(1-(4′-(azetidin-1-ylsulfonyl)-[1,1′-biphenyl]-4-carbonyl)pyrrolidin-3-yl)-5-(1-methyl-1H-pyrazol-4-yl)nicotinamide], the pIC50 was 6.00 to 7.00.

On to `CCOC(=O)C1CN(C(=O)c2ccc(-c3ccc(F)cc3Cl)cc2)CC1NC(=O)c1cc(-c2cnn(C)c2)cnc1N` (centres unmarked) [Example 690, ethyl 4-(2-amino-5-(1-methyl-1H-pyrazol-4-yl)nicotinamido)-1-(2′-chloro-4′-fluoro-[1,1′-biphenyl]-4-carbonyl)pyrrolidine-3-carboxylate], for which the pIC50 is under 6.00.

Compound `CN1CCN(CCc2cccc(-c3cccc(C(=O)N4CC[C@@H](NC(=O)c5cc(-c6cnn(C)c6)cnc5N)C4)c3)c2)CC1` [Example 453, (R)-2-amino-5-(1-methyl-1H-pyrazol-4-yl)-N-(1-(3′-(2-(4-methylpiperazin-1-yl)ethyl)-[1,1′-biphenyl]-3-carbonyl)pyrrolidin-3-yl)nicotinamide] gave a pIC50 of under 6.00.

Turning to `Cn1cc(-c2cnc(N)c(C(=O)N[C@@H]3CCN(Cc4ccccc4-c4cccc(CO)c4)C3)c2)cn1` [Example 247, (R)-2-amino-N-(1-((3′-(hydroxymethyl)-[1,1′-biphenyl]-2-yl)methyl)pyrrolidin-3-yl)-5-(1-methyl-1H-pyrazol-4-yl)nicotinamide], the pIC50 was 6.00 to 7.00.

`Cc1noc(C)c1-c1ccc(C(=O)N2CC[C@@H](NC(=O)c3cc(-c4cnn(C)c4)cnc3N)C2)cc1` [Example 539, (R)-2-amino-N-(1-(4-(3,5-dimethylisoxazol-4-yl)benzoyl)pyrrolidin-3-yl)-5-(1-methyl-1H-pyrazol-4-yl)nicotinamide] gave a negative-log IC50 (pIC50) of 6.00 to 7.00.

For the compound `Cn1cc(-c2cnc(N)c(C(=O)N[C@@H]3CCN(C(=O)Nc4cccnc4)C3)c2)cn1` [Example 13, (R)-2-amino-5-(1-methyl-1H-pyrazol-4-yl)-N-(1-(pyridin-3-ylcarbamoyl)pyrrolidin-3-yl)nicotinamide], the pIC50 is under 6.00.

Compound `Cn1cc(-c2cnc(N)c(C(=O)N[C@@H]3CCN(Cc4ccc(F)c(-c5ccccc5)c4)C3)c2)cn1` [Example 249, (R)-2-amino-N-(1-((6-fluoro-[1,1′-biphenyl]-3-yl)methyl)pyrrolidin-3-yl)-5-(1-methyl-1H-pyrazol-4-yl)nicotinamide] had a pIC50 of 6.00 to 7.00.

`Cn1cc(-c2cnc(N)c(C(=O)N[C@@H]3CCN(C(=S)Nc4ccc(N5CCOCC5)cc4)C3)c2)cn1` [Example 49, (R)-2-amino-5-(1-methyl-1H-pyrazol-4-yl)-N-(1-((4-morpholinophenyl)carbamothioyl)pyrrolidin-3-yl)nicotinamide] had a pIC50 of 6.00 to 7.00.

Consider `Cc1ccc(-c2ccc(C(=O)N3CC[C@@H](Nc4n[nH]c5ncc(-c6cnn(C)c6)cc45)C3)cc2)s1` [Example 615, (R)-(3-((5-(1-methyl-1H-pyrazol-4-yl)-1H-pyrazolo[3,4-b]pyridin-3-yl)amino)pyrrolidin-1-yl)(4-(5-methylthiophen-2-yl)phenyl)methanone], for which the pIC50 is 7.00 to 8.00.
